Data from patent US10653688B2, “6-(6-membered heteroaryl and aryl)isoquinolin-3-yl carboxamides and preparation and use thereof” (Samumed, LLC, priority 2017, dated 2020).
Read-outs that look alike come from different tables or passages of the source.

Columns and labels:
recombinant GSK3β kinase = recombinant GSK3β kinase (Homo sapiens (Human), UniProt P49841); assay: GSK3β kinase assay (Ser/Thr 09 peptide Z-lyte, FRET); type: biochemical;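 note: FRET read-out as coumarin over fluorescein emission ratio, compounds incubated one hour at room temperature, IC50 from dose-response curve fit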
[1] = system: secreted cytokines TNFα, IL-6 and KC-GRO in BV-2 cells (mouse microglial cells); assay: Secreted cytokines in lipopolysaccharide-stimulated mouse glial cell line; type: cell-based; settings: LPS 250 ng/mL 5 hours, table does not say which cytokine
Experimental: Representative compounds were screened using the cell-based assay procedure for secreted cytokines in a Lipopolysaccharide-stimulated mouse glial cell line described below.
BV-2 cells (mouse microglial cells) were cultured in 1:1 DMEM medium supplemented with 10% FBS, and 1% penicillin/streptomycin.
BV-2 cells are plated at 35,000 cells/well in a volume of 100 μl for at least 4 hours before compounds are added. DMSO-resuspended compounds were first dispensed in a 96-well plate and serial diluted from 10 μM to 4.6 nM final concentration in medium. Compounds were added to cells overnight. 250 ng/mL of lipopolysaccharide (Escherichia coli O111:B4, SIGMA) was added for 5 hours. Supernatant is removed and saved for further cytokine detection. The original plates with seeded cells were tested for cytotoxicity by measure of adenosine triphosphate (ATP) release by adding CellTiter-Glo® diluted 1:4 in distilled water (G7573, Promega) and transferring lysed cells to a completely black 96-well plate to be read with the Cytation3. Supernatant was then diluted 1:2 with a diluent from V-PLEX cytokine Kit and directly tested for the secreted cytokines TNFα, IL-6 and KC-GRO using electrochemiluminescence (Meso Scale Discovery). The standard curve for each cytokine was used to convert the electrochemiluminescent signal into pg of protein per mL. The signal was used to plot, draw the curve fitting, and determine each compounds EC50 in Prism (GraphPad).

[2] = system: Wnt activity (SW480 colon carcinoma cells stably expressing the Sp5-Luc reporter gene); assay: Wnt activity screening assay (Sp5-Luc reporter gene assay); type: cell-based, human; settings: Homo sapiens; for EC50: 36 to 48 hours; for inhibition at 10 µM: read-out: percent inhibition at 10 μM (given for EC50 >10 μM), 10 μM
Outline: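 EC50 values come from a variable-slope four-parameter fit of luminescence normalized to DMSO-only wells. The read-out follows 36–48 h incubation at 37 °C, 5% CO2, in DMEM containing 1% fetal bovine serum. Cells are hygromycin-selected SW480 stably expressing firefly luciferase under a Wnt-responsive Sp5 promoter (eight TCF/LEF sites).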

[3] = system: IL-6 in human peripheral blood mononuclear cells (huPBMCs); assay: IL-6 inhibition in LPS-stimulated human peripheral blood mononuclear cells (HTRF); type: cell-based; settings: Homo sapiens, PBMC; for EC50: LPS 50 ng/mL, 22 hours, IL-6 HTRF; for inhibition at 10 µM: read-out: percent inhibition at 10 μM (given for EC50 >10 μM), LPS, IL-6, 10 μM
Outline: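 Compound-treated huPBMCs (1×10e6 cells/mL, 1% FBS-RPMI) were stimulated after 2 h with LPS (50 ng/mL) for another 22 h at 37° C. An anti-IL-6 HTRF pair reported IL-6 as the 665/620 nm ratio; activity relative to DMSO, EC50 by 4-parameter Levenberg-Marquardt fitting, duplicates.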

[4] = system: LL29 cells (primary human fibroblasts derived from IPF patients), α-smooth muscle actin; assay: Inhibition of fibrotic process: TGF-β1-treated primary human fibroblasts, αSMA staining; type: cell-based; settings: Homo sapiens, Fibroblast; for EC50: 96 h, TGF-β1 20 ng/mL, 4 days, % cells positive for αSMA; for inhibition at 10 µM: read-out: percent inhibition at 10 μM (given for EC50 >10 μM), TGF-β1, αSMA, 10 μM;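 for all read-outs here: controls were TGF-β1-stimulated wells with DMSO vehicle as the positive reference and cells given DMSO alone as the negative reference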
[5] = GSK3β kinase, head says EC50, method says IC50, ATP 46 μM

Sequence of recombinant GSK3β kinase (P49841 whole entry): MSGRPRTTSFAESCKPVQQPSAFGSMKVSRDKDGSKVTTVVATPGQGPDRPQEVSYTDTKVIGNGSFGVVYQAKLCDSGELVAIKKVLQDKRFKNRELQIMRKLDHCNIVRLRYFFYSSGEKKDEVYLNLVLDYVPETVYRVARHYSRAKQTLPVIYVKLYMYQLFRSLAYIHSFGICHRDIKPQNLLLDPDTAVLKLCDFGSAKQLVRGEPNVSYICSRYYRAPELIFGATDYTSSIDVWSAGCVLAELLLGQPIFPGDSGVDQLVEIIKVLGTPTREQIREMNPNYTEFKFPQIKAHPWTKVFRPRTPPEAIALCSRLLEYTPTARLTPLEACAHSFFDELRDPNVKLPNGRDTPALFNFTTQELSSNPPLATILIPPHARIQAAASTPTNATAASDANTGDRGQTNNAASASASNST

| EC50 (recombinant GSK3β kinase; [5]) [nM] | EC50 [1] [nM] | EC50 [2] [nM] | EC50 [3] [nM] | EC50 (recombinant GSK3β kinase) [nM] | SMILES | EC50 [4] [nM] | inhibition at 10 µM [2] [%] | inhibition at 10 µM [3] [%] | inhibition at 10 µM [4] [%] |
| --- | --- | --- | --- | --- | --- | --- | --- | --- | --- |
| 1180 | 1330 | > 10000 | > 10000 |  | O=C(CN1CCCC1)Nc1cc2cc(-c3cncc(F)c3)ccc2cn1 [Compound 18, N-(6-(5-Fluoropyridin-3-yl)isoquinolin-3-yl)-2-(pyrrolidin-1-yl)acetamide] | 5970 | 9.2 | 5.8 |  |
|  | 124 | > 10000 | 9150 | 1800 | CN1CCC(C(=O)Nc2cc3cc(-c4cncc(F)c4)ccc3cn2)CC1 [Compound 19, N-(6-(5-Fluoropyridin-3-yl)isoquinolin-3-yl)-1-methylpiperidine-4-carboxamide] | 1210 | 35.9 |  |  |
|  |  | > 10000 | > 10000 | 3280 | CN1CCN(CC(=O)Nc2cc3cc(-c4cncc(F)c4)ccc3cn2)CC1 [Compound 20, N-(6-(5-Fluoropyridin-3-yl)isoquinolin-3-yl)-2-(4-methylpiperazin-1-yl) acetamide] | 3140 | 17.4 | 3.6 |  |
| 3200 | 671 | > 10000 | > 10000 |  | CN1CCN(CC(=O)Nc2cc3cc(-c4ccc(F)nc4)ccc3cn2)CC1 [Compound 21, N-(6-(6-Fluoropyridin-3-yl)isoquinolin-3-yl)-2-(4-methylpiperazin-1-yl) acetamide] | 3400 | 5.5 | 6.3 |  |
|  | 628 | > 10000 | > 10000 | 602 | O=C(CCN1CCOCC1)Nc1cc2cc(-c3cncc(F)c3)ccc2cn1 [Compound 23, N-(6-(5-Fluoropyridin-3-yl)isoquinolin-3-yl)-3-morpholinopropanamide] | 1630 | 38.7 | 8.6 |  |
| 6660 | 640 | > 10000 | > 10000 |  | CN1CCC(C(=O)Nc2cc3cc(-c4cncc(C#N)c4)ccc3cn2)CC1 [Compound 32, N-(6-(5-Cyanopyridin-3-yl)isoquinolin-3-yl)-1-methylpiperidine-4-carboxamide] | 8400 | 24.2 | 5.1 |  |
| 957 | 62 | 810 | 3650 |  | COc1cncc(-c2ccc3cnc(NC(=O)C4CCN(C)CC4)cc3c2)c1 [Compound 33, N-(6-(5-Methoxypyridin-3-yl)isoquinolin-3-yl)-1-methylpiperidine-4-carboxamide] | 481 |  |  |  |
| 193 | 60 | 319 | 375 |  | O=C(Nc1cc2cc(-c3cncc(NC4CCNCC4)n3)ccc2cn1)C1CCCCC1 [Compound 44, N-(6-(6-(piperidin-4-ylamino)pyrazin-2-yl)isoquinolin-3-yl) cyclohexanecarboxamide] | 401 |  |  |  |
| 725 | 109 | 312 | 8950 |  | CN1CCC(C(=O)Nc2cc3cc(-c4cncc(N5CCCC5)c4)ccc3cn2)CC1 [Compound 50, 1-Methyl-N-(6-(5-(pyrrolidin-1-yl)pyridin-3-yl)isoquinolin-3-yl)piperidine-4-carboxamide] | > 10000 |  |  | 31.1 |
| 175 | 171 | 1260 | 3000 |  | O=C(Nc1cc2cc(-c3cncc(CN4CCCC4)c3)ccc2cn1)C1CC1 [Compound 51, N-(6-(5-(Pyrrolidin-1-ylmethyl)pyridin-3-yl)isoquinolin-3-yl) cyclopropanecarboxamide] | 4230 |  |  |  |
|  | 55 | 691 | 3250 | 175 | O=C(Nc1cc2cc(-c3cncc(CN4CCC(O)CC4)c3)ccc2cn1)C1CC1 [Compound 53, N-(6-(5-((4-Hydroxypiperidin-1-yl)methyl)pyridin-3-yl)isoquinolin-3-yl) cyclopropanecarboxamide] | 3070 |  |  |  |
| 609 | 177 | 1230 | 9500 |  | CN1CCN(Cc2cncc(-c3ccc4cnc(NC(=O)C5CC5)cc4c3)c2)CC1 [Compound 56, N-(6-(5-((4-Methylpiperazin-1-yl)methyl)pyridin-3-yl)isoquinolin-3-yl) cyclopropanecarboxamide] | 5130 |  |  |  |

Second part, the compound before the results:

| SMILES | EC50 (recombinant GSK3β kinase; [5]) [nM] | EC50 [1] [nM] | EC50 [2] [nM] | EC50 [3] [nM] | EC50 (recombinant GSK3β kinase) [nM] | EC50 [4] [nM] | inhibition at 10 µM [2] [%] | inhibition at 10 µM [3] [%] | inhibition at 10 µM [4] [%] |
| --- | --- | --- | --- | --- | --- | --- | --- | --- | --- |
| O=C(Nc1cc2cc(-c3cccnc3)ccc2cn1)C1CC1 [Compound 6, N-(6-(Pyridin-3-yl)isoquinolin-3-yl)cyclopropanecarboxamide] | 56 | 33 | 1100 | 1030 |  | 197 |  |  |  |
| O=C(CN1CCCC1)Nc1cc2cc(-c3cccnc3)ccc2cn1 [Compound 7, N-(6-(Pyridin-3-yl)isoquinolin-3-yl)-2-(pyrrolidin-1-yl)acetamide] | 247 | 6 | 3840 | 9260 |  | 4350 |  |  |  |
| CN1CCC(C(=O)Nc2cc3cc(-c4cccnc4)ccc3cn2)CC1 [Compound 8, 1-Methyl-N-(6-(pyridin-3-yl)isoquinolin-3-yl)piperidine-4-carboxamide] | 652 | 36 | 1280 | 1970 |  | 398 |  |  |  |
| O=C(Nc1cc2cc(-c3cccnc3)ccc2cn1)C12CCN(CC1)CC2 [Compound 9, N-(6-(Pyridin-3-yl)isoquinolin-3-yl)quinuclidine-4-carboxamide] |  | 745 | > 10000 | > 10000 |  | 2270 | 11.8 | 3.9 |  |
| O=C(CN1CCOCC1)Nc1cc2cc(-c3cccnc3)ccc2cn1 [Compound 10, 2-Morpholino-N-(6-(pyridin-3-yl)isoquinolin-3-yl)acetamide] | 525 | 75 | > 10000 | > 10000 |  | > 10000 | 15.3 | 3.7 | 6.2 |
| CN1CCN(CC(=O)Nc2cc3cc(-c4cccnc4)ccc3cn2)CC1 [Compound 11, 2-(4-Methylpiperazin-1-yl)-N-(6-(pyridin-3-yl)isoquinolin-3-yl)acetamide] | 1120 | 327 | > 10000 | > 10000 |  | 3580 | 10.8 | 8.5 |  |
| CN1CCCN(CC(=O)Nc2cc3cc(-c4cccnc4)ccc3cn2)CC1 [Compound 12, 2-(4-Methyl-1,4-diazepan-1-yl)-N-(6-(pyridin-3-yl)isoquinolin-3-yl) acetamide] | 722 | 1000 | > 10000 | 9860 |  | 1190 | 39.8 |  |  |
| Cc1nccn1CC(=O)Nc1cc2cc(-c3cccnc3)ccc2cn1 [Compound 14, 2-(2-Methyl-1H-imidazol-1-yl)-N-(6-(pyridin-3-yl)isoquinolin-3-yl) acetamide] | 111 | 136 | 3600 | 9030 |  | 2240 |  |  |  |
| O=C(Cn1ccnc1)Nc1cc2cc(-c3cccnc3)ccc2cn1 [Compound 15, 2-(1H-Imidazol-1-yl)-N-(6-(pyridin-3-yl)isoquinolin-3-yl)acetamide] | 97 | 21 | 3100 | 4820 |  | 1520 |  |  |  |
| CN1CCN(C[C@H]2CC[C@H](C(=O)Nc3cc4cc(-c5cncc(F)c5)ccc4cn3)CC2)CC1 [Compound 17, trans-N-(6-(5-Fluoropyridin-3-yl)isoquinolin-3-yl)-4-((4-methylpiperazin-1-yl)methyl)cyclohexane-1-carboxamide] | 974 | 38 | 6730 | 9350 |  | 471 |  |  |  |
